Test results taken from ChEMBL document CHEMBL1139684, “Potent benzimidazolone based human beta(3)-adrenergic receptor agonists” (Bioorg Med Chem Lett, 2006).

Experiments:
[1] = target: T1, Beta-3 adrenergic receptor (Homo sapiens, UniProt P13945); assay: Agonist activity at human beta-3 adrenergic receptor expressed in CHO cells assessed as cAMP levels at 100 nM relative to isoproterenol; assay type: functional, cell-based
Target sequence in this assay (P13945 whole entry, looked up): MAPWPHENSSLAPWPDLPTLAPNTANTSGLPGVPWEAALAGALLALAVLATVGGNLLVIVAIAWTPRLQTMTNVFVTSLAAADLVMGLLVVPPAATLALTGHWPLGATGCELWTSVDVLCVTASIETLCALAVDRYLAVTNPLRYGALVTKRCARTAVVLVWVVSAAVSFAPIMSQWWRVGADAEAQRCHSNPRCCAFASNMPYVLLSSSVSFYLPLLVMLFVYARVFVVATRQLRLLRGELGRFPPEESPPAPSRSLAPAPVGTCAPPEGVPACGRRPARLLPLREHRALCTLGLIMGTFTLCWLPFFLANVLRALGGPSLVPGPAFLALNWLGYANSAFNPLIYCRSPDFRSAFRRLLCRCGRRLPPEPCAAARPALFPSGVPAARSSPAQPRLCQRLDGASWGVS

Rattus norvegicus [2] = species: Rattus norvegicus; assay: Increase in heart rate in rat at 0.01 mM; assay type: functional
[3] = target: T1, Beta-3 adrenergic receptor; assay: Agonist activity at human beta3 adrenergic receptor expressed in CHO cells assessed as cAMP levels; assay type: functional, cell-based
Target sequence in this assay (P13945 whole entry): as the sequence (P13945 whole entry, looked up) above

[4] = target: Beta-1 adrenergic receptor (Homo sapiens, UniProt P08588); assay: Agonist activity at human beta-1 adrenergic receptor expressed in CHO cells assessed as cAMP levels; assay type: functional, cell-based
[5] = target: T1, Beta-3 adrenergic receptor; assay: Agonist activity at human beta-3 adrenergic receptor expressed in CHO cells assessed as cAMP levels relative to isoproterenol; assay type: functional, cell-based; details: filed as agonist
Target sequence in this assay (P13945 whole entry, looked up): as above

[6] = target: Beta-3 adrenergic receptor (Rattus norvegicus) (UniProt P26255); assay: Agonist activity at rat beta-3 adrenergic receptor expressed in CHO cells assessed as cAMP levels relative to isoproterenol; assay type: functional, cell-based; details: filed as agonist
[7] = target: Beta-3 adrenergic receptor (Rattus norvegicus, UniProt P26255); assay: Agonist activity at rat beta-3 adrenergic receptor expressed in CHO cells assessed as cAMP levels; assay type: functional, cell-based
[8] = target: Beta-2 adrenergic receptor (Homo sapiens, UniProt P07550); assay: Agonist activity at human beta-2 adrenergic receptor expressed in CHO cells assessed as cAMP levels; assay type: functional, cell-based
[9] = AUC (0-6h) in DIO Long-Evans rat at 10 mg/kg, po; assay type: ADME, organism-based; design: time < 6 hr, dose 10 mg/kg, route oral; details: plasma
Rattus norvegicus [10] = assay: Increase in energy expenditure in DIO Long-Evans rat at 10 mg/kg, po after 20 hrs relative to control; assay type: functional
Rattus norvegicus [11] = assay: Reduction in respiratory quotient in DIO Long-Evans rat at 10 mg/kg, po after 20 hrs relative to control; assay type: functional; design: scale not given: the % may be the effect or the level left

Chain of Beta-1 adrenergic receptor (P08588 whole entry): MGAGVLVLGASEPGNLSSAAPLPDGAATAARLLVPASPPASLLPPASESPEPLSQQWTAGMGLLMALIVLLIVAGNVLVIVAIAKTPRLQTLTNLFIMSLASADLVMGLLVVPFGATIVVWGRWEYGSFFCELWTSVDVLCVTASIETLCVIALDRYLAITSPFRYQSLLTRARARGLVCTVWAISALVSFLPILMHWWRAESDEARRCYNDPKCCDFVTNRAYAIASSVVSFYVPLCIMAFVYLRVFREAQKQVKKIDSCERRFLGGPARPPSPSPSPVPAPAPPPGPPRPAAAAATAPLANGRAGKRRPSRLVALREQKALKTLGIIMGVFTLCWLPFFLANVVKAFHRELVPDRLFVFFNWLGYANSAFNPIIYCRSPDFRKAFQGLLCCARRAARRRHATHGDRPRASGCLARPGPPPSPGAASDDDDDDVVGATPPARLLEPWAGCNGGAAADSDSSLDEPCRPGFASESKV
Chain of Beta-2 adrenergic receptor (P07550 whole entry): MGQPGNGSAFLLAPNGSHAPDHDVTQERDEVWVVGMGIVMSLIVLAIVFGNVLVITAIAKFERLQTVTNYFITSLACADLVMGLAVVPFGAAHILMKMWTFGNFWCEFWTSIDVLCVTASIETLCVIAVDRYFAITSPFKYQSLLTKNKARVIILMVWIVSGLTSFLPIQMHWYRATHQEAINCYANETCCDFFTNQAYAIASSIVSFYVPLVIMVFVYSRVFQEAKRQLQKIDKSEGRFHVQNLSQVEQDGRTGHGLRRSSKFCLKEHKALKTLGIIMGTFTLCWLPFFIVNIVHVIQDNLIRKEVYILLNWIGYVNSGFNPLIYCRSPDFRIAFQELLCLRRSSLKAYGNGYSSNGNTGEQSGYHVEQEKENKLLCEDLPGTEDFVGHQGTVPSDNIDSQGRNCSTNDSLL
Chain of Beta-3 adrenergic receptor (Rattus norvegicus, UniProt P26255) (P26255 whole entry): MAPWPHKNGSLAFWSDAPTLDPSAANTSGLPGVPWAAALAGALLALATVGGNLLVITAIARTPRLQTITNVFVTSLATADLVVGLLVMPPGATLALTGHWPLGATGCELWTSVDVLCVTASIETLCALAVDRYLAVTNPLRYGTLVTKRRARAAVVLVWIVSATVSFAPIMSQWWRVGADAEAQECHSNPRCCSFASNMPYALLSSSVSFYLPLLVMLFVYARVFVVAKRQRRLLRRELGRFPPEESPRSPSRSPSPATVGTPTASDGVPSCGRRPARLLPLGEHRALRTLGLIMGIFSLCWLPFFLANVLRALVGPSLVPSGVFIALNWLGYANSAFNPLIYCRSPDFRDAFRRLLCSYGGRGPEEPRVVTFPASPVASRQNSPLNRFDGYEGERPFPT
Chain of Beta-3 adrenergic receptor (Rattus norvegicus) (P26255 whole entry): as above

SMILES | Activity [1] | Activity (Rattus norvegicus [2]) | EC50 [3] | EC50 [4] | Emax [5] | Activity ([1]; filed as agonist) | other results
CC(Cc1ccc(Oc2ccc(C#N)cn2)cc1)NC[C@H](O)COc1cccc2c1[nH]c(=O)n2C (stereo not given in full) | 29% |  |  |  |  |  | 
CC(Cc1ccc(Oc2ccc(C(N)=O)cn2)cc1)NC[C@H](O)COc1cccc2c1n(C)c(=O)n2C (stereo not given in full) | 25% |  |  |  |  |  | 
CC(C)(Cc1ccc(Oc2ccc(C(N)=O)cn2)cc1)NC[C@H](O)COc1cccc2[nH]c(=O)n(CCC3CCCC3)c12 |  | 9.9% | 0.0117 µM (agonist) | > 10 µM | 63.7% |  | 
Cn1c(=O)[nH]c2cccc(OC[C@@H](O)CNC(C)(C)Cc3ccc(Oc4ccc(C(N)=O)cn4)cc3)c21 |  | 17.7% | 0.0071 µM (agonist) | 0.0087 µM (agonist) | 79.7% |  | Emax [6]: 59.6%; EC50 [7]: 0.0245 µM (agonist); EC50 [8]: > 10 µM
CCCn1c(=O)[nH]c2cccc(OC[C@@H](O)CNC(C)(C)Cc3ccc(Oc4ccc(C(N)=O)cn4)cc3)c21 |  | 19.9% | 0.0052 µM (agonist) | > 10 µM | 73.9% |  | EC50 [8]: > 10 µM
CC(Cc1ccc(Oc2ccc(C(=O)O)cc2)cc1)NC[C@H](O)COc1cccc2c1n(C)c(=O)n2C (stereo not given in full) | 28% |  |  |  |  |  | 
CC(Cc1ccc(Oc2ccc(C#N)cn2)cc1)NC[C@H](O)COc1cccc2c1n(C)c(=O)n2C (stereo not given in full) | 11% |  |  |  |  |  | 
CC(Cc1ccc(Oc2ccc(C(=O)O)cc2)cc1)NC[C@H](O)COc1cccc2[nH]c(=O)[nH]c12 (stereo not given in full) |  |  |  |  |  | 99% | 
CC(Cc1ccc(Oc2ccc(C#N)cn2)cc1)NC[C@H](O)COc1cccc2[nH]c(=O)n(C)c12 (stereo not given in full) |  |  |  |  |  | 83% | 
CC(Cc1ccc(Oc2ccc(C#N)cn2)cc1)NC[C@H](O)COc1cccc2[nH]c(=O)[nH]c12 (stereo not given in full) |  |  |  |  |  | 88% | 
CC(Cc1ccc(Oc2ccc(C(=O)O)cc2)cc1)NC[C@H](O)COc1cccc2[nH]c(=O)n(C)c12 (stereo not given in full) |  |  |  |  |  | 84% | 
CC(Cc1ccc(Oc2ccc(C(N)=O)cn2)cc1)NC[C@H](O)COc1cccc2c1[nH]c(=O)n2C (stereo not given in full) | 33% |  |  |  |  |  | 
CC(C)(Cc1ccc(Oc2ccc(C(N)=O)cn2)cc1)NC[C@H](O)COc1cccc2[nH]c(=O)n(CCC3CC3)c12 |  | 8.9% | 0.0054 µM (agonist) | > 10 µM | 67.9% |  | Emax [6]: 42.7%; EC50 [7]: 0.0068 µM (agonist); EC50 [8]: > 10 µM
CC(Cc1ccc(Oc2ccc(C(=O)O)cc2)cc1)NC[C@H](O)COc1cccc2c1[nH]c(=O)n2C (stereo not given in full) | 30% |  |  |  |  |  | 
CCn1c(=O)[nH]c2cccc(OC[C@@H](O)CNC(C)(C)Cc3ccc(Oc4ccc(C(N)=O)cn4)cc3)c21 |  | 20.8% | 0.0052 µM (agonist) | > 10 µM | 65.1% |  | EC50 [8]: > 10 µM
CC(C)(Cc1ccc(Oc2ccc(C(N)=O)cn2)cc1)NC[C@H](O)COc1cccc2[nH]c(=O)n(CCC3CCC3)c12 |  | 6.5% | 0.0101 µM (agonist) | > 10 µM | 58.2% |  | Emax [6]: 49.6%; AUC(0-t) at 6 h [9]: 112 ng·h/mL; EC50 [7]: 0.0287 µM (agonist); Activity (Rattus norvegicus [10]): 18%; EC50 [8]: > 10 µM; Activity (Rattus norvegicus [11]): 29%
CC(Cc1ccc(Oc2ccc(C(N)=O)cn2)cc1)NC[C@H](O)COc1cccc2[nH]c(=O)[nH]c12 (stereo not given in full) |  |  |  |  |  | 97% | 
CC(Cc1ccc(Oc2ccc(C(N)=O)cn2)cc1)NC[C@H](O)COc1cccc2[nH]c(=O)n(C)c12 (stereo not given in full) |  |  |  |  |  | 87% | 
